Assay results published in patent US4764505A, “Skin treatment composition” (Shiseido Company Ltd., priority 1985, dated 1988).
Read-outs that look alike come from different tables or passages of the source.

Columns and labels:
[1] = system: skin; conditions: guinea pig, in vivo
[2] = system: skin; conditions: guinea pig, in vivo; remark: listed apart in the source
[3] = Stability of neutral cream on storage at 37° C. (discoloration); type: physicochemical; conditions: for degree of discoloration: neutral cream of Example 8 (or arbutin replaced), 37° C.
Description: These three samples were stored at a temperature of 37° C. for 1 month, 2 months, and 3 months.

[4] = Stability with time in 0.1N aqueous sodium hydroxide (absorbancy at 420 nm, FIG. 1); type: physicochemical; conditions: 1 mM in 0.1N aqueous sodium hydroxide, 37° C.
Description: Also in FIG. 1, the changes of the absorbancy at 420 nm are shown with the lapse of time.
Hydroquinone, arbutin, or hydroquinone monocaprylate was dissolved at a concentration of 1 mM in a 0.1N aqueous sodium hydroxide solution. The changes in the color of the resultant solutions with the lapse of time at 37° C. were monitored by measuring the absorbancy at 420 nm.

[5] = system: tyrosinase
Description: The depigmenting effects of arbutin and hydroquinone were evaluated by using the inhibition rate of tyrosinase, i.e. polyphenol oxidase for forming melanin. This evaluation method is generally accepted in the art.
The tyrosinase inhibition rate was determined by using DOPA as a substrate as follows:
Preparation of Sample Solution
Aqueous sample solutions having a concentration of hydroquinone or arbutin of 150, 300, or 600 mM were prepared.
Preparation of Substrate Solution
A substrate solution was prepared by dissolving 5 mg of DOPA in 10 ml of distilled water.
Preparation of Enzyme Solution
An enzyme solution was prepared by dissolving 10 mg of tyrosinase (2000 I.U./mg, Sigma Chemical Co.) in 10 ml of distilled water.
A 0.5 ml amount of the substrate solution and 0.9 ml of 1/15M phosphate buffer solution were added to 0.05 ml of the sample. The mixture was incubated at 25° C. for 5 minutes. Then, 0.05 ml of the enzyme solution, which was previously incubated at 25° C. for 5 minutes, was added to the above-incubated sample mixture. The resultant mixture was allowed to react for 1.5 minutes. The absorbancy of the resultant reaction mixture was measured at 475 nm. The tyrosinase inhibition rate was calculated from the following equation: [formula] wherein T: Absorbancy in the case of the inhibitor being added;
T': Absorbancy in the case of the inhibitor being added but the substrate not being added
C: Absorbancy in the case of the inhibitor not being added
C': Absorbancy in the case of neither the inhibitor nor the substrate being added

Compound: CCCCCCCC(=O)Oc1ccc(O)cc1 [Hydroquinone monocaprylate, hydroquinone monocaprylate]
- Results (incidence, animals responding/tested) [1]: 5/5
- Results (score, erythema and edema criteria) [1]: 3.4
- order of the contact sensitization potential [1]: Hydroquinone monocaprylate>Hydroquinone>>Arbutin
- irritation (in words) [2]: strong irritation
- degree of discoloration ([3]; 1 month): +
- degree of discoloration ([3]; 2 months): +
- degree of discoloration ([3]; 3 months): -
- change in color of the solution with lapse of time [4]: the stability was improved moderate

Compound: Oc1ccc(O)cc1 [Hydroquinone, hydroquinone]
- Results (incidence, animals responding/tested) [1]: 5/5
- Results (score, erythema and edema criteria) [1]: 2.6
- order of the contact sensitization potential [1]: Hydroquinone monocaprylate>Hydroquinone>>Arbutin
- Inhibition Rate (%) ([5]; concentration 5 mM): 46.5%
- Inhibition Rate (%) ([5]; concentration 10 mM): 51.6%
- Inhibition Rate (%) ([5]; concentration 20 mM): 59.0%
- degree of discoloration ([3]; 1 month): -
- change in color of the solution with lapse of time [4]: rapidly colored brown

Compound: OC[C@H]1O[C@@H](Oc2ccc(O)cc2)[C@H](O)[C@@H](O)[C@@H]1O [Arbutin, hydroquinone-β-D-glucoside]
- Results (incidence, animals responding/tested) [1]: 0/1
- Results (score, erythema and edema criteria) [1]: 0
- contact sensitivity compared with other depigmenting agents [1]: remarkably low compared with that of other depigmenting agents
- order of the contact sensitization potential [1]: Hydroquinone monocaprylate>Hydroquinone>>Arbutin
- irritation (in words) [2]: no irritation
- number of the guinea pigs causing the irritation [2]: 0
- Inhibition Rate (%) ([5]; concentration 5 mM): 55.3%
- Inhibition Rate (%) ([5]; concentration 10 mM): 62.3%
- Inhibition Rate (%) ([5]; concentration 20 mM): 67.1%
- inhibition effect compared with hydroquinone ([5]; tyrosinase, Table 1 conclusion in words): superior to that of hydroquinone
- stability with the lapse of time (in words) ([3]; Table 4 conclusion): excellent
- degree of discoloration ([3]; 1 month): ++
- degree of discoloration ([3]; 2 months): ++
- degree of discoloration ([3]; 3 months): ++
- change in color of the solution with lapse of time [4]: the change of appearance was not observed
